This is an account of results in EP4219453A1 (Sichuan Kelun-Biotech Biopharmaceutical Co., Ltd., priority 2020, dated 2022).

For experiment [1], the target named is T1, TGFβR1 (Homo sapiens, UniProt P36897).
T1 sequence (P36897 34-503): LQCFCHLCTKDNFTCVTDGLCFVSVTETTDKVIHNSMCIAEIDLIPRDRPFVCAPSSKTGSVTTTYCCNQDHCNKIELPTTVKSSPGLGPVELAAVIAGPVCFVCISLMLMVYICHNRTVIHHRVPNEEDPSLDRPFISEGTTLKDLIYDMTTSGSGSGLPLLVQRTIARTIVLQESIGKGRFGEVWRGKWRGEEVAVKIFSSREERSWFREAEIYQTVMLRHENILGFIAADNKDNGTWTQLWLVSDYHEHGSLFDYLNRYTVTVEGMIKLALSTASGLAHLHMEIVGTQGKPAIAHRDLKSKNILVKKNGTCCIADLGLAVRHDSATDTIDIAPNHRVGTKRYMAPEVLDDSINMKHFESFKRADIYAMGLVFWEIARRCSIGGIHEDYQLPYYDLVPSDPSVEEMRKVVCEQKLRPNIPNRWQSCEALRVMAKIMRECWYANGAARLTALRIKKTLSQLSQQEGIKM
Put plainly: In vitro enzymatic activity inhibition test (TGFβR1), ADP-Glo Kinase Detection Kit. To be noted: calculated from percent inhibition at 1000 nM, 100 nM, 10 nM. The experiment is classed as biochemical. Here is the method: Test Example 1: In vitro enzymatic activity inhibition test (TGFβR1).
(§1) Experimental method: According to the instructions of ADP-Glo™ Kinase Detection Kit (Promega), the inhibitory effect of the compounds of the present invention on the enzymatic activity of TGFβR1 was determined, and the steps were as follows: TGFβR1 enzyme were pre-incubated with different concentrations of test compounds (1000 nM, 100 nM, 10 nM) at 30°C for 30 min, TGFβR1 peptide and adenosine triphosphate (ATP) were added to initiate the reaction. The incubation was performed at 30°C for 3 h, followed by an addition of ADP-Glo™ reagent and incubated at room temperature for 90 min, kinase detection reagent was then added. Chemiluminescence signal values were detected after incubation at room temperature for another 30 min.
When the percent inhibition rate was between 30% and 80%, the median inhibitory concentration (IC50) or range of the compound was calculated according to the following formula: IC50 = X × (1 - percent inhibition rate (%)) / percent inhibition rate (%), wherein X is the concentration of the compound at which the inhibition rate is between 30% and 80%.

The target of experiment [2] is TGFβR2 (Homo sapiens, UniProt P37173). Put plainly: In vitro enzymatic activity inhibition test (TGFβR2), ADP-Glo Kinase Detection Kit. The format is biochemical. To be noted: MBP substrate, calculated from percent inhibition at 1000nM, 100nM, 10nM. Here is the method:
Test Example 2: In vitro enzymatic activity inhibition test (TGFβR2).
as §1, with “TGFβR2” for “TGFβR1”, “(1000nM, 100nM, 10nM)” for “(1000 nM, 100 nM, 10 nM)”, “myelin basic protein (MBP)” for “TGFβR1 peptide”, “The chemiluminescence” for “Chemiluminescence”
When the percent inhibition was between 30% and 80%, the median inhibitory concentration (IC50) or range of the compound was calculated according to the following formula: IC50 = X × (1 - percent inhibition rate (%)) / percent inhibition rate (%), wherein X is the concentration of the compound at which the inhibition rate is between 30% and 80%.

The test system of experiment [3] is TGFβ/Smads signaling pathway in HEK293-SBE cells. In words: In vitro cell activity inhibition test, Bright-Glo luciferase reporter in HEK293-SBE cells. The note with it: TGFβ 0.5 ng/ml, luciferase reporter gene method. The experiment is classed as cell-based. Here is the method:
Test Example 3: In vitro cell activity inhibition test
Experimental method: According to the instructions of Bright-Glo™ luciferase detection kit (Promega), the inhibitory effect of the compounds of the present invention on TGFβ/Smads signaling pathway in HEK293-SBE cells was determined. The steps were as follows: HEK293-SBE cells (Bps bioscience) were added to a 96-well plate (10% FBS medium), 30,000/well, and cultured overnight at 37°C and 5% CO2. The medium was changed to 0.5% FBS medium, and the test compound diluted in 0.5% FBS medium was added. The highest final concentration of the test compound was 10 µM with 4-fold dilution, and a total of 8 concentration gradients. After 4-5 hours of incubation, 10 µl of TGFβ was added. The final concentration of TGFβ was 0.5 ng/ml. 10 µl of medium added in replace of TGFβ was the negative control. In the blank control, no test compound was added, and TGFβ was added. Bright Glo reagent was added to each well, and the chemiluminescence signal value was read on a microplate reader.
The percent inhibition rates of the test compound at different concentrations were plotted against the compound concentrations, the curve was fitted according to the four-parameter model, and the IC50 value was calculated by the following formula: y = Min + (Max - Min) / (1 + (x / IC50) ^ (-Hillslope)), wherein: y is percentage inhibition rate; Max and Min are the maximum and minimum values of the fitted curve, respectively; x is the logarithmic concentration of compound; and Hillslope is the slope of the curve.
A general note: Reporter assays use an easily measured gene product as a stand-in for the process of interest.

Chain of TGFβR2 (P37173 23-567): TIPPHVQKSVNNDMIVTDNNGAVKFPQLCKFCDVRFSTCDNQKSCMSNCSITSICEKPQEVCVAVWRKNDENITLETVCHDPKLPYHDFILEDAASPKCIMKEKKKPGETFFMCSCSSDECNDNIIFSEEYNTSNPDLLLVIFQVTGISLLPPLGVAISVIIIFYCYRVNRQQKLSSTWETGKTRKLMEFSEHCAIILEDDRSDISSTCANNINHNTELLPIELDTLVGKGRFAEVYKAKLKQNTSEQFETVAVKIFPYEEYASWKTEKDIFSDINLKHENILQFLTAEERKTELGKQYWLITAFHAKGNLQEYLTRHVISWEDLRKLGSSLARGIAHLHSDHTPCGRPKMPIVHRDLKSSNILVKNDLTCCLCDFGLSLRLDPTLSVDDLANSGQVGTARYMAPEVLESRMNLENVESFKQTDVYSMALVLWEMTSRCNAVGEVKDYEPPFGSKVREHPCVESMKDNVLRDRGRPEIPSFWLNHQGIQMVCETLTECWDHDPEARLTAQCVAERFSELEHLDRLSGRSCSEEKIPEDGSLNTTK

As for `Cc1cccc(-n2nccc2-c2ccn3ncnc3c2)n1` [Example 2, 7-(1-(6-methylpyridin-2-yl)-1H-pyrazol-5-yl)-[1,2,4]triazolo[1,5-a]pyridine], the IC50 in experiment [1] was 9.83 ± 4.79 nM; in experiment [2], above 1000 nM.
On to `Cc1cccc(-n2nccc2-c2ccn3nccc3c2)n1` [Example 3, 5-(1-(6-methylpyridin-2-yl)-1H-pyrazol-5-yl) pyrazolo[1,5-a]pyridine], for which the concentration for half-maximal inhibition (IC50) was 43.8 ± 6.08 nM in experiment [1], above 1000 nM in experiment [2] and 29.1 ± 2.5 nM in experiment [3].
Consider `Cc1cc(CNc2cc(-c3ccc4ncsc4c3)n(-c3cccc(C)n3)n2)ccn1` [Example 9, 5-(benzo[d]thiazol-6-yl)-1-(6-methylpyridin-2-yl)-N-((2-methylpyridin-4-yl)methyl)-1H-pyrazol-3-amine], for which the IC50 is 27.4 ± 4.89 nM in experiment [1] and 43.2 ± 2.54 nM in experiment [3].

For orientation: IC50 means the concentration at which inhibition is half-maximal.
